Test results: PubChem BioAssay AID2060912 (Molecular Pharmacology Branch, DTP, NCI, 2025)

Tested on: HUVEC/MSC spheroids viability
Experiment: Human HUVEC/MSC cell line growth inhibition [KRAS2];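 on viability, T/C: percent of DMSO vehicle control luminescence so 100% = untreated viability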
Conditions: for IC50: curve of first compound; for viability, T/C: stronger effect = lower value
Excerpt: Multicellular complex tumor spheroid response to RAS pathway inhibitors in combination with a targeted agents in patient-derived cell lines with oncogenic KRAS variants from multiple cancer types
A high-throughput screen of multi-cell type tumor spheroids was designed to identify active combinations of targeted small molecules and KRAS pathway inhibitors. Complex spheroids include a stromal component modeled by human endothelial cells (HUVEC) and fibroblasts modeled by human mesenchymal stem cells (MSCs). The concentration ranges selected for each drug and investigational agent were based upon clinically achievable concentrations if the clinical Cmax of the agent was known. * [This particular assayID is a followup dataset requested by reviewers of the manuscript. It is a test of the HUVEC and MSC without the tumor cells, and was conducted using different drug plates and a different plate layout.]
Compounds. The drugs and investigational agents: BI-3406 (NSC825286), BAY-293 (NSC824723), batoprotafib (TNO155; NSC825523), sotorasib (AMG 510; NSC818433), MRTX1257 (NSC819558), elimusertib (BAY 1895344; NSC800525), molibresib (GSK525762; NSC774829), temuterkib (LY3214996; NSC803410), venetoclax (NSC766270), alisertib (NSC759677), olaparib (NSC753686), talazoparib (NSC767125), erdafitinib (NSC781556), ipatasertib (NSC767898), cabozantinib (NSC761068), nintedanib (NSC756659), abemaciclib (NSC768073), docetaxel (NSC628503), trametinib (NSC758246), and sapanisertib (NSC764658) were obtained from the National Cancer Institute (NCI) Developmental Therapeutics Program Chemical Repository. The FDA-approved anticancer drug set is available from the Developmental Therapeutics Program. […] The stock solutions were prepared in dimethyl sulfoxide (DMSO, Sigma-Aldrich, St. Louis, MO, cat. D2650) at 800-fold the tested concentration and stored at -70 degrees C prior to their use. All drugs and investigational agents were tested over a range starting from a high concentration at or near the clinical Cmax and decreasing in half-log increments. If the clinical Cmax for an agent had not been determined, the highest concentration tested was 10 microM.
Cell Culture. All cells were maintained in an incubator at 37 degrees C and 5% CO2 with 95% humidity. The PDC lines were cultured according to standard operating procedures established by the NCI PDMR (https://pdmr.cancer.gov/sops/default.htm). Briefly, all PDCs were thawed and cultured in Matrigel-coated flasks prepared with a working solution of 1X Ham's F-12 nutrient mix, without supplementation (Invitrogen, Waltham, MA, cat. 11765054), 100 U/mL penicillin-streptomycin (Invitrogen, cat. 15140122), and 2.5% Matrigel (Corning Inc., Corning, NY, cat. 354248) for the first three passages. All PDCs were cultured in complete DMEM/F-12 media containing advanced DMEM/F-12 (Invitrogen, cat. 12634028), 4.9% defined fetal bovine serum, heat inactivated (HyClone Laboratories Inc., Logan, UT, cat. SH30070.03HI), 389 ng/mL hydrocortisone (Sigma-Aldrich, cat. H4001), 9.7 ng/mL human EGF recombinant protein (Invitrogen, cat. PHG0313), 23.4 microg/mL adenine (Sigma-Aldrich, cat. A2786), 97.3 U/mL penicillin-streptomycin (Invitrogen, cat. 15140122), 1.9 mM L-glutamine (Invitrogen, cat. 25030081), and 9.7 microM Y-27632 dihydrochloride (Tocris Bioscience, Bristol, United Kingdom, cat. 1254). The PDCs were cultured in complete DMEM/F12 media without 9.7 microM Y-27632 dihydrochloride for at least two passages prior to the screen. The established cell line HOP-62 was cultured in RPMI 1640 medium, HEPES (Invitrogen, cat. 22400105) with 10% defined fetal bovine serum (HyClone Laboratories Inc., cat. SH30070.03) and 2 mM L-glutamine (Invitrogen, cat. 25030081). The pooled donor HUVEC were cultured in endothelial cell growth medium 2 (PromoCell, Heidelberg, Germany, cat. C-22011) and the hMSC were cultured in mesenchymal stem cell growth medium 2 (PromoCell, cat. C-28009). […]

For `CC(=O)OC12COC1CC(O)C1(C)C(=O)C(O)C3=C(C)C(OC(=O)C(O)C(NC(=O)OC(C)(C)C)c4ccccc4)CC(O)(C(OC(=O)c4ccccc4)C21)C3(C)C` (configuration not stated) + C=CC(=O)N1CCN(c2nc(OCC3CCCN3C)nc3c2CCN(c2cccc4cccc(C)c24)C3)CC1CC#N, the IC50 (second compound 0.00949 µM) was < 9.49 nM, the IC50 (second compound 0.03 µM) was < 9.49 nM and the IC50 (second compound 0.0949 µM) was < 9.49 nM. The IC50 (second compound 0.3 µM) was < 9.49 nM, the IC50 (second compound 0.949 µM) was < 9.49 nM and the IC50 (second compound 3 µM) was > 3000 nM. It also gave a viability, T/C (second compound 0.00949 µM, first compound 0.00949 µM) of 48.9%, a viability, T/C (second compound 0.00949 µM, first compound 0.03 µM) of 42.7% and a viability, T/C (second compound 0.00949 µM, first compound 0.0949 µM) of 47.8%. It also gave a viability, T/C (second compound 0.00949 µM, first compound 0.3 µM) of 47%, a viability, T/C (second compound 0.00949 µM, first compound 0.949 µM) of 47.8% and a viability, T/C (second compound 0.00949 µM, first compound 3 µM) of 58%. For the same compound, the viability, T/C (second compound 0.03 µM, first compound 0.00949 µM) was 44.7%, the viability, T/C (second compound 0.03 µM, first compound 0.03 µM) was 40.9% and the viability, T/C (second compound 0.03 µM, first compound 0.0949 µM) was 38%. The viability, T/C (second compound 0.03 µM, first compound 0.3 µM) was 48.1%, the viability, T/C (second compound 0.03 µM, first compound 0.949 µM) was 47.1% and the viability, T/C (second compound 0.03 µM, first compound 3 µM) was 49.4%. It also gave a viability, T/C (second compound 0.0949 µM, first compound 0.00949 µM) of 44.3%, a viability, T/C (second compound 0.0949 µM, first compound 0.03 µM) of 42.1% and a viability, T/C (second compound 0.0949 µM, first compound 0.0949 µM) of 41.6%. The viability, T/C (second compound 0.0949 µM, first compound 0.3 µM) was 40.4%, the viability, T/C (second compound 0.0949 µM, first compound 0.949 µM) was 45.1% and the viability, T/C (second compound 0.0949 µM, first compound 3 µM) was 48.3%. For the same compound, the viability, T/C (second compound 0.3 µM, first compound 0.00949 µM) was 40.4%, the viability, T/C (second compound 0.3 µM, first compound 0.03 µM) was 49.7% and the viability, T/C (second compound 0.3 µM, first compound 0.0949 µM) was 45%. The viability, T/C (second compound 0.3 µM, first compound 0.3 µM) was 34.3%, the viability, T/C (second compound 0.3 µM, first compound 0.949 µM) was 48.1% and the viability, T/C (second compound 0.3 µM, first compound 3 µM) was 55%. It also gave a viability, T/C (second compound 0.949 µM, first compound 0.00949 µM) of 44.7%, a viability, T/C (second compound 0.949 µM, first compound 0.03 µM) of 48.3% and a viability, T/C (second compound 0.949 µM, first compound 0.0949 µM) of 50.5%. The viability, T/C (second compound 0.949 µM, first compound 0.3 µM) was 44.5%, the viability, T/C (second compound 0.949 µM, first compound 0.949 µM) was 63.9% and the viability, T/C (second compound 0.949 µM, first compound 3 µM) was 51.5%. The viability, T/C (second compound 3 µM, first compound 0.00949 µM) was 82.6%, the viability, T/C (second compound 3 µM, first compound 0.03 µM) was 76.2% and the viability, T/C (second compound 3 µM, first compound 0.0949 µM) was 75.6%. For the same compound, the viability, T/C (second compound 3 µM, first compound 0.3 µM) was 62.6%, the viability, T/C (second compound 3 µM, first compound 0.949 µM) was 67.5% and the viability, T/C (second compound 3 µM, first compound 3 µM) was 90.5%.
